Starred links: 1 amine or outer side, 2 acyl side, 3 side chain; linkers in the order of their positions; H or OH if unused. Positions of bridges follow the written chain, without caps; N, C: chain ends. Non-standard residues stand in square brackets, D forms with d. Residues, ends and D or L forms follow the SMILES beside them. *: point of attachment. Bip = N[C@@H](Cc1ccc(-c2ccccc2)cc1)C(=O)O; Phe(2-Me) = Cc1ccccc1C[C@H](N)C(=O)O; NMeF = CN[C@@H](Cc1ccccc1)C(=O)O; X2 = O=C([C@H]1COCCN1[*:1])[*:2]; Carboxymethyl = O=C(O)C*; NMeA = CN[C@@H](C)C(=O)O; Dab = NCC[C@H](N)C(=O)O; Sar = CNCC(=O)O

Results on six compounds are retold here after patent US20240360178A1, “MACROCYCLIC IMMUNOMODULATORS” (Bristol-Myers Squibb Company, priority 2021, published 2024).

This assay addresses T1, human PD-1 (Jurkat-PD-1 cells) / PE-labeled human PD-L1-Ig (Homo sapiens, UniProt Q15116).
T1 construct: expressed in transfected cells; host or cells: Jurkat cell line over-expressing human PD-1
As to the kind of experiment: Jurkat-PD-1 Cell Binding High-Content Screening Assay (CBA); Jurkat hPD1-PDL1 assay. The settings on record: Jurkat cell line over-expressing human PD-1; PE-labeled PD-L1-Ig 20 nM final; compound incubated 2 hours at 37° C.; read-out: Jurkat HPD1-PDL1 IC50. Summed up:
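Read-out is high-content imaging of PE fluorescence on PD-1-over-expressing Jurkat cells. Cells are first exposed to compound for 2 hours at 37° C in serum-containing DMEM, after which PE-labeled PD-L1-Ig is added at 20 nM final.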

T1 sequence (Q15116 25-288): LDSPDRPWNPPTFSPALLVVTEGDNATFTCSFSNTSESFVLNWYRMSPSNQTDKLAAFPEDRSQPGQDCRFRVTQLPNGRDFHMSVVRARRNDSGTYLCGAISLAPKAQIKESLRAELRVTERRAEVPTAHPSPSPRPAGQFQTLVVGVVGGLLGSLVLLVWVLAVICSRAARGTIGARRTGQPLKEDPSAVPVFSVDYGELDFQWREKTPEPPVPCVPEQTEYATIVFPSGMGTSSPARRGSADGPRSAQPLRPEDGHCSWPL

`CC(C)C[C@@H]1NC(=O)[C@H](CCCNC(=N)N)NC(=O)[C@H](Cc2ccccc2)N(C)C(=O)[C@H](C)N(C)C(=O)[C@H](CCCNC(=N)N)NC(=O)[C@H](Cc2ccc(-c3ccccc3)cc2)NC(=O)[C@H](C(C)C)NC(=O)[C@H](Cc2c[nH]c3ccccc23)NC(=O)[C@H](CC(=O)O)NC(=O)[C@H](Cc2ccc(OCC(=O)O)cc2)NC(=O)[C@H](Cc2ccccc2)NC(=O)CSC[C@@H](C(=O)NCC(N)=O)NC(=O)[C@H](CO)NC(=O)[C@H](C(C)C)NC1=O` [Example 1275] ({CH2CO}-FY(Carboxymethyl)DWV[Bip]R[NMeA][NMeF]RLVSCG-NH2; thioether N-14): the IC50 came to 30 nM.
Under `CC(C)C[C@@H]1NC(=O)[C@H](Cc2c[nH]c3ccccc23)NC(=O)[C@H](CC(=O)O)NC(=O)[C@H](Cc2ccc(O)cc2)NC(=O)[C@H](Cc2ccccc2)NC(=O)CSC[C@@H](C(=O)N[C@@H](C)C(N)=O)NC(=O)[C@H](CO)NC(=O)[C@H](C(C)C)NC(=O)[C@H](CC(C)C)NC(=O)[C@H](CC(N)=O)NC(=O)[C@H]2COCCN2C(=O)[C@H](C)N(C)C(=O)[C@H](C(C)C)NC(=O)[C@H](Cc2ccc(-c3ccccc3)cc2)NC1=O` [Example 1044] ({CH2CO}-FYDWL[Bip]V[NMeA][X2]NLVSCA-NH2; thioether N-14) stands 80 nM; under `CC(C)C[C@@H]1NC(=O)[C@H](CCCNC(=N)N)NC(=O)[C@H](Cc2ccccc2)N(C)C(=O)[C@H](C)N(C)C(=O)[C@H](CCCNC(=N)N)NC(=O)[C@H](Cc2ccc(-c3ccccc3)cc2)NC(=O)[C@H](C(C)C)NC(=O)[C@H](Cc2c[nH]c3ccccc23)NC(=O)[C@H](CC(=O)O)NC(=O)[C@H](Cc2ccc(O)cc2)NC(=O)[C@H](CC(N)=O)NC(=O)CSC[C@@H](C(=O)N[C@@H](C)C(N)=O)NC(=O)[C@H](CO)NC(=O)[C@H](C(C)C)NC1=O` [Example 1301] ({CH2CO}-NYDWV[Bip]R[NMeA][NMeF]RLVSCA-NH2; thioether N-14), 150 nM.
Under `CC(C)C[C@@H]1NC(=O)[C@H](Cc2c[nH]c3ccccc23)NC(=O)[C@H](CC(=O)O)NC(=O)[C@H](Cc2ccc(OCC(=O)O)cc2)NC(=O)[C@H](Cc2cnc[nH]2)NC(=O)CSC[C@@H](C(=O)N[C@@H](C)C(N)=O)NC(=O)[C@H](CO)NC(=O)[C@H](C(C)C)NC(=O)[C@H](CC(C)C)NC(=O)[C@H](CC(N)=O)NC(=O)[C@H]2CCCN2C(=O)[C@H](C)N(C)C(=O)[C@H](C(C)C)NC(=O)[C@H](Cc2ccc(-c3ccccc3)cc2)NC1=O` [Example 1052] ({CH2CO}-HY(Carboxymethyl)DWL[Bip]V[NMeA][dP]NLVSCA-NH2; thioether N-14) stands 120 nM.
In the case of `Cc1ccccc1C[C@@H]1NC(=O)[C@H](CC(=O)O)NC(=O)[C@H](Cc2ccc(O)cc2)NC(=O)[C@H](Cc2ccccc2)NC(=O)CSC[C@@H](C(=O)N[C@@H](C)C(N)=O)NC(=O)[C@H](CO)NC(=O)[C@H](C(C)C)NC(=O)[C@H](CC(C)C)NC(=O)[C@H](CC(N)=O)NC(=O)CN(C)C(=O)[C@H](C)N(C)C(=O)[C@H](C(C)C)NC(=O)[C@H](Cc2ccc(-c3ccccc3)cc2)NC(=O)[C@H](CC(C)C)NC1=O` [Example 1172] ({CH2CO}-FYD[Phe(2-Me)]L[Bip]V[NMeA][Sar]NLVSCA-NH2; thioether N-14) it was 950 nM; in that of `CC(C)C[C@@H]1NC(=O)[C@H](CCN)NC(=O)[C@H](Cc2ccccc2)N(C)C(=O)[C@H](C)N(C)C(=O)[C@H](CCC(=O)O)NC(=O)[C@H](Cc2ccc(-c3ccccc3)cc2)NC(=O)[C@H](C(C)C)NC(=O)[C@H](Cc2c[nH]c3ccccc23)NC(=O)[C@H](CC(=O)O)NC(=O)[C@H](Cc2ccc(O)cc2)NC(=O)[C@H](Cc2ccccc2)NC(=O)CSC[C@@H](C(=O)N[C@@H](CCC(=O)O)C(N)=O)NC(=O)[C@H]([C@@H](C)O)NC(=O)[C@H](C(C)C)NC1=O` [Example 1343] ({CH2CO}-FYDWV[Bip]E[NMeA][NMeF][Dab]LVTCE-NH2; thioether N-14), 370 nM.

As usually defined, the IC50 is the concentration that inhibits the measured activity by half.
